Where two headings read alike, the source gives them in different places.
Assays:
KOPN-8 [1] = assay: CTG viability assay (CellTiter-Glo, 72 h); type: cell-based; conditions: Homo sapiens, mean ± SEM of triplicates
Description: (§1) All human cell lines were incubated at 37 °C in a 5% CO2 atmosphere and maintained under sterile conditions. Cells were tested for Mycoplasma (Lonza, Alpharetta, GA, USA) using the manufacturer’s conditions prior to experiments. Cell lines were purchased from American Type Culture Collection (ATCC, Manassas, VA, USA) or Leibniz-Institute Deutsche Sammlung von Mikroorganismen und Zellkulturen GmbH (DSMZ, Braunschweig, Germany) and cultured without antibiotics unless stated. Leukemia cells were cultured in RPMI and supplemented with 10% fetal bovine serum (FBS, Hyclone, Logan, UT, USA). SUP-B15, and KOPN-8 lines were cultured in RPMI supplemented with 10% FBS (Hyclone), 1% GlutaMAX™, 1% Pen/Step, and 0.1% β-mercaptoethanol. BJ cells were cultured in EMEM media supplemented with 10% FBS (Hyclone). Breast cancer cells (MDA-MB-231 & SUM149) were cultured in DMEM and Ham’s F12 respectively, supplemented with 10% FBS, 1% GlutaMAX™, 1% Pen/Step, and 2 µM cortisol/1 µg/mL insulin for SUM149. Both cells were grown to 80% confluence densities as recommended by ATCC. PBMCs were supplemented with concanavalin-A (5 μg/mL) and IL-2 (50 U/ml). To test general cytotoxicity, the following cell numbers were used for 384 well plates: KOPN-8 (ACC 552, infant human B cell precursor acute lymphoblastic leukemia with MLL-MLLt1/ENL fusion, 1000 cells/well), SUP-B15 (ACC389, human B cell precursor acute lymphoblastic leukemia of pediatric second relapse carrying the ALL-variant (m-bcr) of BCR-ABL1 fusion gene (e1-a2), 1600 cells/well), NALM-06 (DSMZ ACC128, non-T/non-B ALL at relapse with P15INK4B and P16INK4A deletions, 1200 cells/well), UoC-B1 (pediatric BCP-ALL at second relapse with TCF3/E2A-HFL fusion, 1000 cells/well), BJ (CRL-2522, normal human foreskin fibroblast cells, 400 cells/well) and PBMCs (periphery blood monocyte cells from healthy donors, IBC#BDC046, 10,000 cells/well).
(§2) Cytotoxicity evaluation was performed using the CellTiter-Glo Luminescent Cell Viability Assay kit (G7570, Promega, Madison, WI, USA), according to the manufacturer’s instructions. Briefly, the cell concentrations used were experimentally determined to ensure logarithmic growth during the 72-h duration of the experiment, and avoid adverse effects on cell growth by DMSO exposure. 1 × 10^3–4.8 × 10^3 or 4 × 10^2–1.2 × 10^3 cells/well were seeded in 96 or 384-well white flat-bottomed plates (3610 or 8804BC, Corning, Corning, NY, USA) in 100 µL or 30 µL/well, respectively. The plates were incubated at 37 °C in 5% CO2 for 24 h before drugging. Test compounds (10 mM in DMSO) in nine 3-fold serial dilutions were dispensed via pintool (Biomek liquid handler, Beckman, Indianapolis, USA) to assay plates. The final concentration of DMSO was 0.3% (v/v) in each well. The positive controls included staurosporine (10 μM), and gambogic acid (10 μM). The plates were incubated for 72 h at 37 °C in 5% CO2, then quenched with CellTiter-Glo® (Promega, Madison, WI, USA, 50 µL/96 or 30 µL/384), centrifuged at 1000 rpm for 1 min and incubated at RT for 20 min. Luminescence was recorded with a plate reader (Envision, Perkin Elmer, Waltham, MA, USA). The mean luminescence of each experimental treatment group was normalized as a percentage of the mean intensity of untreated controls. EC50 values were calculated by Pipeline Pilot software (Accelrys, Enterprise Platform, San Diego, CA, USA).

NALM-06 = assay: CTG viability assay (CellTiter-Glo, 72 h); type: cell-based; conditions: Homo sapiens, mean ± SEM of triplicates
Description: as §1, §2

KOPN-8 [2] = assay: Cell cycle analysis (PI DNA content, flow cytometry); type: cell-based, human; conditions: KOPN-8, 24 h; silvestrol 5 µM, 8 5 µM, 9 10 µM, 10 5 µM, 12 10 µM, 13 10 µM
Description: (§3) The samples were probed with AnnexinV-FITC (Roche/Boehringer Mannheim, Indianapolis, IN, USA) according to the manufacturer’s instructions. KOPN-8 or SUB-P15 cells were plated (1.00 × 10^6 cells/plate) and incubated for 12 h and incubated at 37 °C. Then, cells were treated with compounds or controls for 24 h. Cells were stained with AnnexinV-FITC, PI and the staining profiles were determined with FACScan and Cell-Quest software. For cellular DNA content, the same cell treatment as above was performed. Then, cells were fixed in cold 75% ethanol, treated with RNase and then stained with PI solution (50 µg/mL). Cell cycle distribution was analyzed with the FACSCalibur analyzer (BD Biosciences, Franklin Lakes, NJ, USA) and Cell-Quest software. The percentage of DNA content at different phases of the cell cycle was analyzed with ModFit-software (version 5.0, Verity Software House, Topsham, ME, USA).

SUP-B15 = assay: as above; type: cell-based, human; conditions: SUP-B15, 24 h; silvestrol 5 µM, 8 5 µM, 9 10 µM, 10 5 µM, 12 10 µM, 13 10 µM
Description: as §3

MDA-MB-231 = assay: Propidium iodide (PI) assay, 48 h; type: cell-based, human; conditions: MDA-MB-231, 48 h
Description: The first step was to evaluate if the compounds display cytotoxicity against the adherent cells. Propidium iodide (PI) assay was performed for the drug resistant solid tumor cellular models (triple negative breast cancer models: SUM149 and MDA-MB-231) for 48 h (Figure 5) [30, 31].

Aqueous solubility = type: physicochemical; conditions: physiological pH (7.40), compared to controls
Description: (§4) To gain further information regarding intracellular compound localization, studies were extended to include a marker for the ER (Figure 8). The staining pattern for the individual probes are shown in Figure 8A (ER), Figure 8B (Lysosome) and Figure 8D (probe 9a). […] Moreover, when all three channels were merged, white specks were observed, indicating co-localization of probe 9a with cellular structures that are stained by both ER and lysosomal marker dyes (Figure 8F). […] These mechanisms provide a plausible explanation for the lower potency of compound 9 compared to compound 10. Finally, in vitro ADME (absorption, distribution, metabolism, and elimination) profiles were evaluated for compounds 9 and 10 to compare with the obtained cellular data (Supplementary Material, Figure S10). The aqueous solubility properties at physiological pH (7.40) of compounds 9 and 10 were good compared to controls. […] The combined findings indicate that the steric-effects of the hydroxysuccinate appendage of compound 10 renders it less prone to degradation by lysosomal activity or other competing cellular removal mechanisms.

[3] = Simulated gastric fluid (SGF) stability; type: in vitro ADME; conditions: read-out: SGF stability t1/2
Description: as §4

[4] = Metabolic stability in liver microsomes; type: in vitro ADME; conditions: for half-life: read-out: metabolic stability t1/2
Description: as §4

Plasma stability assay = type: in vitro ADME; conditions: read-out: plasma stability t1/2
Description: as §4

PAMPA assay = type: in vitro ADME
Description: as §4

SMILES | EC50 (KOPN-8 [1]) [µM] | EC50 (NALM-06) [µM] | cell cycle effect (KOPN-8 [2]) | cell cycle effect (SUP-B15) | activity in PI assay (MDA-MB-231) | aqueous solubility (Aqueous solubility) | half-life ([3]; simulated gi fluid) [h] | metabolic stability t1/2 ([4]; human liver microsomes) | metabolic stability t1/2 ([4]; mouse liver microsomes) | half-life (Plasma stability assay; human plasma) [h] | half-life (Plasma stability assay; mouse plasma) [h] | PAMPA permeability (PAMPA assay; PAMPA) | half-life [3] [h] | half-life ([4]; human liver microsomes) [h] | half-life ([4]; mouse liver microsomes) [h] | PAMPA permeability (PAMPA assay)
COC1=C[C@]23CCCN2CCc2cc4c(cc2[C@@H]3[C@@H]1O)OCO4 [Compound 9, cephalotaxine] | 23.1 ± 5.2 | 9.5 ± 2.7 | no significant cell arrest | no significant cell arrest | substantial activity | good | > 33 | rapidly degraded | rapidly degraded | > 25 | > 25 | favorable permeability properties |  |  |  | 
COC(=O)C[C@](O)(CCCC(C)(C)O)C(=O)O[C@@H]1C(OC)=C[C@]23CCCN2CCc2cc4c(cc2[C@H]13)OCO4 [Compound 10, homoharringtonine, reference compound] | 0.0799 ± 0.01 | 0.0322 ± 0.01 | almost identical to silvestrol | almost identical to silvestrol | substantial activity | good |  |  |  | > 12 | < 1 |  | > 33 | ≥ 1 | ≥ 1 | favorable permeability properties

Source: PMC6571673, “Cytostatic and Cytotoxic Natural Products against Cancer Cell Models” (Molecules, 2019)
